Publication PMC11396129, “Oxindole–benzothiazole hybrids as CDK2 inhibitors and anticancer agents: design, synthesis and biological evaluation” (BMC Chemistry, 2024)

How the values were obtained:
CCRF-CEM = test: NCI 60 panel growth inhibition (SRB), leukemia; assay type: cell-based, human; settings: for GI%: 10 μM
Method in brief: (§1)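 Seeding 5000–40,000 cells/well per doubling time; Tz plates TCA-fixed at 24 h. Five concentrations, 10-fold or ½ log steps, from DMSO concentrate at 400× top dose. Dose-response parameters incl. TGI; values beyond range given as > or < tested limits.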

HL-60(TB) = test: NCI 60 panel growth inhibition (SRB), leukemia; assay type: cell-based, human; settings: for GI%: HL-60(TB), 10 μM
Method in brief: as §1

K-562 = test: NCI 60 panel growth inhibition (SRB), leukemia; assay type: cell-based, human; settings: for GI%: K-562, 10 μM
Method in brief: as §1

MOLT-4 = test: NCI 60 panel growth inhibition (SRB), leukemia; assay type: cell-based, human; settings: for GI%: MOLT-4, 10 μM
Method in brief: as §1

RPMI-8226 = test: NCI 60 panel growth inhibition (SRB), leukemia; assay type: cell-based, human; settings: for GI%: RPMI-8226, 10 μM
Method in brief: as §1

SR = test: NCI 60 panel growth inhibition (SRB), leukemia; assay type: cell-based, human; settings: for GI%: 10 μM
Method in brief: as §1

A549/ATCC = test: NCI 60 panel growth inhibition (SRB), non-small cell lung cancer; assay type: cell-based, human; settings: for GI%: 10 μM
Method in brief: as §1

EKVX = test: as above; assay type: cell-based, human; settings: for GI%: 10 μM
Method in brief: as §1

HOP-62 = test: as above; assay type: cell-based, human; settings: for GI%: HOP-62, 10 μM
Method in brief: as §1

HOP-92 = test: as above; assay type: cell-based, human; settings: for GI%: HOP-92, 10 μM
Method in brief: as §1

NCI-H226 = test: as above; assay type: cell-based, human; settings: for GI%: NCI-H226, 10 μM
Method in brief: as §1

NCI-H23 = test: as above; assay type: cell-based, human; settings: for GI%: NCI-H23, 10 μM
Method in brief: as §1

NCI-H322M = test: as above; assay type: cell-based, human; settings: for GI%: 10 μM
Method in brief: as §1

NCI-H460 = test: as above; assay type: cell-based, human; settings: for GI%: NCI-H460, 10 μM
Method in brief: as §1

NCI-H522 = test: as above; assay type: cell-based, human; settings: for GI%: NCI-H522, 10 μM
Method in brief: as §1

U251 = test: NCI 60 panel growth inhibition (SRB), CNS cancer; assay type: cell-based, human; settings: for GI%: U251, 10 μM
Method in brief: as §1

IGROV1 = test: NCI 60 panel growth inhibition (SRB), ovarian cancer; assay type: cell-based, human; settings: for GI%: IGROV1, 10 μM
Method in brief: as §1

NCI/ADR-RES = test: as above; assay type: cell-based, human; settings: for GI%: 10 μM
Method in brief: as §1

OVCAR-3 = test: as above; assay type: cell-based, human; settings: for GI%: OVCAR-3, 10 μM
Method in brief: as §1

OVCAR-4 = test: as above; assay type: cell-based, human; settings: for GI%: OVCAR-4, 10 μM
Method in brief: as §1

OVCAR-5 = test: as above; assay type: cell-based, human; settings: for GI%: OVCAR-5, 10 μM
Method in brief: as §1

OVCAR-8 = test: as above; assay type: cell-based, human; settings: for GI%: OVCAR-8, 10 μM
Method in brief: as §1

SK-OV-3 = test: as above; assay type: cell-based, human; settings: for GI%: SK-OV-3, 10 μM
Method in brief: as §1

DU-145 = test: NCI 60 panel growth inhibition (SRB), prostate cancer; assay type: cell-based, human; settings: for GI%: DU-145, 10 μM
Method in brief: as §1

PC-3 = test: as above; assay type: cell-based, human; settings: for GI%: PC-3, 10 μM
Method in brief: as §1

CDK2 = target: T1, CDK2 (Homo sapiens, UniProt P24941); test: CDK2 kinase assay (BPS kit, Kinase-Glo Max); assay type: biochemical; settings: for IC50: mean of two independent experiments ± SD
T1 construct: purchased BPS Biosciences 79599

HT29 = test: NCI 60 panel growth inhibition (SRB), colon cancer; assay type: cell-based, human; settings: for GI%: HT29, 10 μM
Method in brief: as §1

SK-MEL-2 = test: NCI 60 panel growth inhibition (SRB), melanoma; assay type: cell-based, human
Method in brief: as §1

Compound: Cc1ccc2c(c1)C(=NNC(=O)COc1ccccc1-c1nc3ccccc3s1)C(=O)N2 [Compound 9b, 2-(2-(Benzo[d]thiazol-2-yl)phenoxy)-N′-(5-methyl-2-oxoindolin-3-ylidene)acetohydrazide]
- GI% (CCRF-CEM): 23.64%
- GI% (HL-60(TB)): 8.38%
- GI% (K-562): 20.57%
- GI% (MOLT-4): 29.12%
- GI% (RPMI-8226): 30.53%
- GI% (SR): 18.71%
- GI% (A549/ATCC): 28.01%
- GI% (EKVX): 24.46%
- GI% (HOP-62): 51.18%
- GI% (HOP-92): 35.86%
- GI% (NCI-H226): 105.34%
- GI% (NCI-H23): 85.13%
- GI% (NCI-H322M): 19.44%
- GI% (NCI-H460): 34.24%
- GI% (NCI-H522): 37.21%
- GI% (U251): 56.51%
- GI% (IGROV1): 35.91%
- GI% (NCI/ADR-RES): 71.87%
- GI% (OVCAR-3): 79.13%
- GI% (OVCAR-4): 99.49%
- GI% (OVCAR-5): 7.29%
- GI% (OVCAR-8): 57.37%
- GI% (SK-OV-3): 15.84%
- GI% (DU-145): 22.75%
- GI% (PC-3): 22.82%
- IC50 (CDK2): 0.7 ± 0.013 µM
- melting point: 251 to 253 °C

Compound: COc1ccc2c(c1)C(=NNC(=O)COc1cc(-c3nc4ccccc4s3)ccc1OC)C(=O)N2 [Compound 9o, 2-(5-(Benzo[d]thiazol-2-yl)-2-methoxyphenoxy)-N′-(5-methoxy-2-oxoindolin-3-ylidene)acetohydrazide]
- GI% (CCRF-CEM): 57.64%
- GI50 (CCRF-CEM; Homo sapiens, five dose): 6.08 µM
- GI% (HL-60(TB)): 7.99%
- GI50 (HL-60(TB); Homo sapiens, HL-60 (TB), five dose): > 100 µM
- GI50 (K-562; Homo sapiens, K562, K-562, five dose): 3.75 µM
- GI% (K-562): 64.36%
- GI50 (MOLT-4; Homo sapiens, MOLT-4, five dose): 5.05 µM
- GI% (MOLT-4): 36.32%
- GI50 (RPMI-8226; Homo sapiens, RPMI-8226, five dose): 61.4 µM
- GI% (RPMI-8226): 66.93%
- GI% (SR): 35.47%
- GI50 (SR; Homo sapiens, five dose): 20.9 µM
- GI% (A549/ATCC): 39.87%
- GI50 (A549/ATCC; Homo sapiens, five dose): 30.9 µM
- GI% (EKVX): 55.62%
- GI50 (EKVX; Homo sapiens, five dose): 20 µM
- GI50 (HOP-62; Homo sapiens, HOP-62, five dose): 7.84 µM
- GI% (HOP-92): 15.22%
- GI50 (HOP-92; Homo sapiens, HOP-92, five dose): 51.9 µM
- GI50 (NCI-H226; Homo sapiens, NCI-H226, five dose): 21.3 µM
- GI% (NCI-H226): 5.08%
- GI50 (NCI-H23; Homo sapiens, NCI-H23, five dose): 3.03 µM
- GI% (NCI-H23): 84.74%
- GI% (NCI-H322M): 9.70%
- GI50 (NCI-H322M; Homo sapiens, five dose): > 100 µM
- GI50 (NCI-H460; Homo sapiens, NCI-H460, five dose): 9.26 µM
- GI% (NCI-H460): 106.89%
- GI50 (NCI-H522; Homo sapiens, NCI-H522, five dose): 48 µM
- GI% (NCI-H522): 5.70%
- GI% (HT29): 20.32%
- GI50 (HT29; Homo sapiens, HT-29, HT29, five dose): 26.8 µM
- GI50 (U251; Homo sapiens, U-251, U251, five dose): 2020 nM
- GI% (U251): 143.46%
- GI50 (SK-MEL-2; Homo sapiens, SK-MEL-2, five dose): > 100 µM
- GI% (SK-MEL-2; SK-MEL-2, 10 μM): 26.06%
- GI50 (IGROV1; Homo sapiens, IGROV-1, IGROV1, five dose): 2220 nM
- GI% (IGROV1): 18.68%
- GI% (NCI/ADR-RES): 130.36%
- GI50 (NCI/ADR-RES; Homo sapiens, five dose): 18.5 µM
- GI50 (OVCAR-3; Homo sapiens, OVCAR-3, five dose): 2490 nM
- GI% (OVCAR-3): 94.12%
- GI50 (OVCAR-4; Homo sapiens, OVCAR-4, five dose): > 100 µM
- GI% (OVCAR-4): 68.35%
- GI50 (OVCAR-5; Homo sapiens, OVCAR-5, five dose): > 100 µM
- GI% (OVCAR-5): 9.28%
- GI50 (OVCAR-8; Homo sapiens, OVCAR-8, five dose): 4.02 µM
- GI% (OVCAR-8): 93.38%
- GI50 (SK-OV-3; Homo sapiens, SK-OV-3, five dose): 48.9 µM
- GI% (DU-145): 130.12%
- GI50 (DU-145; Homo sapiens, DU-145, five dose): 2920 nM
- GI50 (PC-3; Homo sapiens, PC-3, five dose): 3.78 µM
- GI% (PC-3): 49.56%
- kinase selectivity (CDK2; from IC50 of Tables 4 and 5): higher selectivity toward CDK2 and CDK5 over CDK1, VEGFR-2 and FGFR-1
- IC50 (CDK2): 0.21 ± 0.015 µM
- melting point: 199 to 201 °C

Compound: O=C(COc1ccccc1-c1nc2ccccc2s1)NN=C1C(=O)Nc2ccc(Br)cc21 [Compound 9f, 2-(2-(Benzo[d]thiazol-2-yl)phenoxy)-N′-(5-bromo-2-oxoindolin-3-ylidene)acetohydrazide]
- GI% (CCRF-CEM): 21.91%
- GI% (HL-60(TB)): 29.39%
- GI% (K-562): 22.52%
- GI% (MOLT-4): 36.74%
- GI% (RPMI-8226): 29.01%
- GI% (SR): 43.03%
- GI% (A549/ATCC): 29.34%
- GI% (EKVX): 19.72%
- GI% (HOP-62): 74.09%
- GI% (HOP-92): 51.76%
- GI% (NCI-H226): 106.99%
- GI% (NCI-H23): 40.56%
- GI% (NCI-H322M): 17.70%
- GI% (NCI-H460): 18.32%
- GI% (NCI-H522): 51.70%
- GI% (HT29): – (GI% < 5%)
- GI% (U251): 86.92%
- GI% (IGROV1): 42.62%
- GI% (NCI/ADR-RES): 49.76%
- GI% (OVCAR-3): 81.63%
- GI% (OVCAR-4): 90.58%
- GI% (OVCAR-5): – (GI% < 5%)
- GI% (OVCAR-8): 71.28%
- GI% (SK-OV-3): 17.03%
- GI% (DU-145): 14.27%
- GI% (PC-3): 27.83%
- IC50 (CDK2): 0.2 ± 0.035 µM
- melting point: 261 to 263 °C
